Test results published in the CheMixHub viscosity set.

Test: xn = mol fraction of the nth substance listed

COC(=O)c1ccccc1 + C1CCOC1
viscosity [mPa·s], 100 kPa
Settings | x1 = 0.0689 | x1 = 0.1417 | x1 = 0.2202 | x1 = 0.303 | x1 = 0.3932 | x1 = 0.493 | x1 = 0.6018 | x1 = 0.7225 | x1 = 0.8535
303.15 K | 0.496 | 0.562 | 0.638 | 0.727 | 0.829 | 0.951 | 1.096 | 1.262 | 1.446
308.15 K | 0.484 | 0.546 | 0.616 | 0.699 | 0.79 | 0.904 | 1.032 | 1.181 | 1.343
313.15 K | 0.443 | 0.505 | 0.567 | 0.641 | 0.729 | 0.83 | 0.943 | 1.078 | 1.22

CCCCCCBr + C1COCCO1
303.15 K, 101.3 kPa
Settings | viscosity [mPa·s]
x2 = 0.1105 | 0.8848
x2 = 0.3021 | 0.8777
x2 = 0.4972 | 0.9007
x2 = 0.698 | 0.947
x2 = 0.8997 | 1.03

COC(=O)c1ccccc1 + C1COCCO1
viscosity [mPa·s], 100 kPa
Settings | x1 = 0.0898 | x1 = 0.1468 | x1 = 0.228 | x1 = 0.3145 | x1 = 0.4054 | x1 = 0.5056 | x1 = 0.6161 | x1 = 0.7316 | x1 = 0.8597
303.15 K | 1.13 | 1.157 | 1.198 | 1.244 | 1.293 | 1.352 | 1.418 | 1.491 | 1.573
308.15 K | 1.038 | 1.066 | 1.106 | 1.147 | 1.192 | 1.246 | 1.308 | 1.376 | 1.449
313.15 K | 0.984 | 1.006 | 1.04 | 1.075 | 1.11 | 1.157 | 1.208 | 1.263 | 1.324

CCCCCCBr + C=C(C)C(=O)OC
303.15 K, 101 kPa
Settings | viscosity [mPa·s]
x2 = 0.1439 | 0.8087
x2 = 0.2632 | 0.7611
x2 = 0.4885 | 0.6895
x2 = 0.5904 | 0.6665
x2 = 0.6826 | 0.6354
x2 = 0.8513 | 0.5709
x2 = 0.9171 | 0.5459
